Patent publication US20050158320A1, “Combinations for the treatment of proliferative diseases” (priority 2003, published 2005)
Like-named read-outs stand apart in the source and are kept apart here.

How the values were obtained:
[1] = test system: Human colon adenocarcinoma cell line HCT116; assay: anti-proliferation assay (Alamar Blue); assay type: cell-based; conditions: read-out: percent inhibition (% I) of cell proliferation
Description: Cells were diluted in culture media such that 3000 cells were delivered in 20 μL of media into each assay well. […] Quantification, using an LJL Analyst AD reader (LJL Biosystems), was taken in the middle of the well with high attenuation, a 100 msec read time, an excitation filter at 530 nm, and an emission filter at 575 nm. For some experiments, quantification was performed using a Wallac Victor2 reader. Measurements were taken at the top of the well with stabilized energy lamp control; a 100 msec read time, an excitation filter at […], and an emission filter at 590 nm. No significant differences between plate readers were measured. The percent inhibition (% I) for each well was calculated using the following formula: % I=[(avg. untreated wells−treated well)/(avg. untreated wells)]×100 […] Negative inhibition values result from local variations in treated wells as compared to untreated wells.

PRL phosphatases = conditions: Pathak et al., Mol. Cancer Ther. 2002; cited from earlier work
[2] = target: T1, Recombinant HsEg5/KSP kinesin motor protein (Homo sapiens, UniProt P52732); assay: cell free motor assay (Kinesin ATPase End Point Biochem Kit, microtubule activated ATPase activity); assay type: biochemical
T1 sequence (P52732 1-1056): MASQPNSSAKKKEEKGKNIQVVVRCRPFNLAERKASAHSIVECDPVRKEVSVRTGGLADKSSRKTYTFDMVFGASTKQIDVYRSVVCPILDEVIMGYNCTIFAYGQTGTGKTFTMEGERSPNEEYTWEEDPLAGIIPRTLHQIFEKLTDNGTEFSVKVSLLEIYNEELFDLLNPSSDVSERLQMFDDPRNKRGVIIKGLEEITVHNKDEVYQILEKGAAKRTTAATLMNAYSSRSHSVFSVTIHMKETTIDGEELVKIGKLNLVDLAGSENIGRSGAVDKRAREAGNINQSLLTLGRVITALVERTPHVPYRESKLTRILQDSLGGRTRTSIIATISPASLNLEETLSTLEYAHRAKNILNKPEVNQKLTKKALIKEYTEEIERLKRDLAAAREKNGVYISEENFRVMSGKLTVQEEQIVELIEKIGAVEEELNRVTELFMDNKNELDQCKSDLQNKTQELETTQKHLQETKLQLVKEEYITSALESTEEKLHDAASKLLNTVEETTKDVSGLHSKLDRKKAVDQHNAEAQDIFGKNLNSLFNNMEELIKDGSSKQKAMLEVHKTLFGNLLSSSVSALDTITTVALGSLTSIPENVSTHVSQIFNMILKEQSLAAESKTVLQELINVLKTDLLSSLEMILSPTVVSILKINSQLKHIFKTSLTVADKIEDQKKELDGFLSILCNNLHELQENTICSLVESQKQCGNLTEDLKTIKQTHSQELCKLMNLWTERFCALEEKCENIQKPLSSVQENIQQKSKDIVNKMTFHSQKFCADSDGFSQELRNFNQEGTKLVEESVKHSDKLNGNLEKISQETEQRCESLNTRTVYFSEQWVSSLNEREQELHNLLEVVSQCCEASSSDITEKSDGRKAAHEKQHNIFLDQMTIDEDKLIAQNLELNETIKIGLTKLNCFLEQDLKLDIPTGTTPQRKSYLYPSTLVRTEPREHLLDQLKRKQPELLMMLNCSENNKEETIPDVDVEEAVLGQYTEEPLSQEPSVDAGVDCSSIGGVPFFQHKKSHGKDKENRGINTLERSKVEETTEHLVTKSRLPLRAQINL
Description: This assay measures organic phosphate (Pi) generated during microtubule activated ATPase activity of kinesin motor proteins. Recombinant HsEg5/KSP kinesin motor protein activity was assayed using the Kinesin ATPase End Point Biochem Kit (Cytoskeleton, catalog # BK053) following the manufacturer's instructions for amounts of reaction buffer, ATP and microtubules. The amount of HsEg5/KSP kinesin protein was optimized to 0.8 μg per reaction and included where indicated. Each assay was performed in a total reaction volume of 30 μL in a clear 96 well ½ area plate (Coming Inc., Costar and cat # 3697) and included the following conditions: • 1. a reaction blank consisting of reaction buffer and ATP only; • 2. negative control reactions containing: • a. microtubules and ATP without kinesin protein or • b. kinesin HsEg5/KSP and ATP without microtubules; and • 3. experimental reactions containing ATP, kinesin, and microtubules with or without compound at the indicated final concentrations.
Reactions were pre-incubated for 15 minutes at room temperature prior to the addition of ATP. After ATP addition, reactions were allowed to proceed for 10 minutes at room temperature prior to termination by the addition of 70 μL of CytoPhos Reagent. Following a last 10-minute incubation at room temperature, reactions were quantitated by reading the absorbance at 650 nm on a spectrophotometer (Beckman Instruments, Inc., Model DU 530). Raw absorbance values were corrected by subtracting the absorbance of the blank. Absorbance was converted into Pi concentration by comparison with a standard Pi curve. Percent inhibition was calculated from Pi concentration according to the following formula: % Inhibition=(untreated-treated)/untreated×100. The arithmetic mean was generated from percent inhibition of experimental replicates.

With `N=C(N)c1ccc(OCCCCCOc2ccc(C(=N)N)cc2)cc1` [Pentamidine, pentamidine] the inhibition at 0.5 µM ([1]; HCT-116, chlorpromazine 0 μM, pentamidine 0.5 μM) was 1.2%, the inhibition at 1 µM ([1]; HCT-116, chlorpromazine 0 μM, pentamidine 1 μM) was 1.9% and the inhibition at 2 µM ([1]; HCT-116, chlorpromazine 0 μM, pentamidine 2 μM) was 3.1%. The inhibition at 4 µM ([1]; HCT-116, chlorpromazine 0 μM, pentamidine 4 μM) was -0.77%, the inhibition at 6 µM ([1]; HCT-116, chlorpromazine 0 μM, pentamidine 6 μM) was 5% and the inhibition at 9 µM ([1]; HCT-116, chlorpromazine 0 μM, pentamidine 9 μM) was 9%. It also gave an inhibition at 12 µM ([1]; HCT-116, chlorpromazine 0 μM, pentamidine 12 μM) of 9.9%, an inhibition at 15 µM ([1]; HCT-116, chlorpromazine 0 μM, pentamidine 15 μM) of 16% and an inhibition at 20 µM ([1]; HCT-116, chlorpromazine 0 μM, pentamidine 20 μM) of 19%. The “PRL phosphatase inhibition (in words)” value (PRL phosphatases) was “inhibitor of the PRL phosphatases”.
In the case of `CN(C)CCCN1c2ccccc2Sc2ccc(Cl)cc21` [Chlorpromazine, chlorpromazine], the inhibition at 4 µM ([1]; HCT-116, chlorpromazine 4 μM, pentamidine 0 μM) is reported as 2.9%, the inhibition at 6 µM ([1]; HCT-116, chlorpromazine 6 μM, pentamidine 0 μM) is reported as 0.11% and the inhibition at 7.5 µM ([1]; HCT-116, chlorpromazine 7.5 μM, pentamidine 0 μM) is reported as 5.4%. It also gave an inhibition at 9 µM ([1]; HCT-116, chlorpromazine 9 μM, pentamidine 0 μM) of 4.1%, an inhibition at 10 µM ([1]; HCT-116, chlorpromazine 10 μM, pentamidine 0 μM) of 16% and an inhibition at 12 µM ([1]; HCT-116, chlorpromazine 12 μM, pentamidine 0 μM) of 22%. It also gave an inhibition at 16 µM ([1]; HCT-116, chlorpromazine 16 μM, pentamidine 0 μM) of 39%, an inhibition at 20 µM ([1]; HCT-116, chlorpromazine 20 μM, pentamidine 0 μM) of 56% and an inhibition at 22 µM ([1]; HCT-116, chlorpromazine 22 μM, pentamidine 0 μM) of 59%. The “mitotic kinesin inhibition (in words)” value ([2]; cell free motor assay) was “mitotic kinesin inhibitor”, the inhibition at 1 µM ([2]; chlorpromazine 1 μM, mean, n = 4, read-out: Percent inhibition of kinesin motor activity) was -5.51% and the inhibition at 2 µM ([2]; chlorpromazine 2 μM, mean, n = 4, read-out: Percent inhibition of kinesin motor activity) was -11.2%. The inhibition at 4 µM ([2]; chlorpromazine 4 μM, mean, n = 4, read-out: Percent inhibition of kinesin motor activity) was 17.4%, the inhibition at 8 µM ([2]; chlorpromazine 8 μM, mean, n = 4, read-out: Percent inhibition of kinesin motor activity) was 52.9% and the inhibition at 16 µM ([2]; chlorpromazine 16 μM, mean, n = 4, read-out: Percent inhibition of kinesin motor activity) was 85.8%. It also gave an inhibition at 32 µM ([2]; chlorpromazine 32 μM, mean, n = 4, read-out: Percent inhibition of kinesin motor activity) of 97.8% and an inhibition at 64 µM ([2]; chlorpromazine 64 μM, mean, n = 4, read-out: Percent inhibition of kinesin motor activity) of 105%.
